Reference: PubChem BioAssay AID493059 (The Scripps Research Institute Molecular Screening Center, 2011)
Activity calls are given as the source filed them.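 The calls were made as follows: active = share of cells pushed into apoptosis exceeding a set limit, after 48 hr at 25 µM; inactive = the rest.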

tested on: 2B4 cells apoptosis, DAPI nuclear morphology; test: apoptosis induction in cultured cancer cells, late-stage follow-up, MCL1-BIM inhibitor project, imaging, DAPI fluorescence, 2B4 cells (AID 493059); conditions: not given

Q: Which outcome does the source give for `Cc1ccc(C(=O)O)cc1-c1ccc(/C=C2\SC(=O)N(CC(=O)Nc3ccc4c(c3)OCO4)C2=O)o1` here?
A: inactive

Q: Which outcome does the source give for `Cc1cc(NC(=O)Cc2cccs2)no1` here?
A: inactive

Q: For `O=C(/C=C/c1ccc(Cl)c([N+](=O)[O-])c1)Nc1ccc(N2CCCC2)cc1`, which outcome is on record?
A: inactive

same assay, conditions: at 25 µM; stronger effect = higher value

Q: How did the apoptosis turn out when `O=[N+]([O-])c1cc(CN2CCCC2)c2cccnc2c1O` was run?
A: 1.7% (inactive)

Q: How did the apoptosis turn out when `C=CCn1c(SCC(=O)c2ccc(O)c(O)c2)nnc1-c1cccnc1` was run?
A: 3.5% (inactive)

Q: For `O=C(Cn1cnc2sc(-c3ccccc3)cc2c1=O)NCc1ccco1`, which apoptosis is on record?
A: 3.6% (inactive)

Q: For `COc1ccc(-n2cccc2/C=C2\C(=N)N3N=C(c4ccco4)SC3=NC2=O)cc1`, which apoptosis is on record?
A: 3.7% (inactive)

Q: Which apoptosis does the source give for `c1ccc(CSc2nnc(-c3ccco3)c(-c3ccco3)n2)cc1` here?
A: 14% (inactive)

Q: For `C=CCN=c1scc(-c2ccco2)n1/N=C/c1ccc(O)c(O)c1O`, which apoptosis is on record?
A: 98%

Q: For `O=C(NN=Cc1cccc(F)c1)c1cc(-c2ccco2)nc2ccccc12`, which apoptosis is on record?
A: 3% (inactive)

Q: For `Cc1c(Cl)cccc1NS(=O)(=O)c1ccc2c(c1)C1C=CCC1C(c1ccc(C(=O)O)cc1)N2` (stereo not drawn), which apoptosis is on record?
A: 0% (inactive)

Q: For `COc1ccc(NC(=O)CN(C)C(=O)c2cc3c(s2)CCC3)cc1`, which apoptosis is on record?
A: 1.8% (inactive)

Q: Which apoptosis does the source give for `O=C1COc2ccc(C(=O)COC(=O)/C=C/c3ccc(Br)o3)cc2N1` here?
A: 3.4% (inactive)

Q: How did the apoptosis turn out when `CC(C)n1c(SCC(=O)Nc2nncs2)nnc1-c1ccco1` was run?
A: 0% (inactive)

Q: For `O=C(O)COc1ccccc1C(Nc1ccccn1)c1cc(Cl)c2cccnc2c1O` (stereo not drawn), which apoptosis is on record?
A: 5.1% (inactive)

Q: How did the apoptosis turn out when `Cc1cccc(NC(=O)CNC(=O)c2cccc(-n3cccc3)c2)c1C` was run?
A: 1.9% (inactive)

Q: With `CCc1sc(C(C2C(=O)CC(C)(C)CC2=O)C2C(=O)CC(C)(C)CC2=O)cc1[N+](=O)[O-]` as the compound, how does the apoptosis read?
A: 3.5% (inactive)

Q: `COC(=O)c1ccccc1NCc1cc(=O)oc2cc(O)c(O)cc12` was tested. Which apoptosis did it give?
A: 14% (inactive)

Q: Which apoptosis does the source give for `COc1ccc(Cc2nnc(NC(=O)Cc3cccs3)s2)cc1OC` here?
A: 0% (inactive)

Q: For `O=C(NN=Cc1ccc(-c2ccc(S(=O)(=O)Nc3ncccn3)cc2)o1)c1cc2ccccc2cc1O`, which apoptosis is on record?
A: 18%

Q: With `CCOc1ccc(NC(=O)c2cccc(-n3cccc3)c2)cc1S(=O)(=O)N1CCOCC1` as the compound, how does the apoptosis read?
A: 6.1% (inactive)

Q: With `Nc1ccc(C(=O)NN=Cc2cc(N=Nc3cccc4ccccc34)ccc2O)cc1` as the compound, how does the apoptosis read?
A: 15%

Q: `c1coc(-c2nc(-c3ccco3)c(-c3ccco3)nc2-c2ccco2)c1` was tested. Which apoptosis did it give?
A: 0% (inactive)
